In ChEMBL document CHEMBL5608222, “Development of 3'-Deoxy-3',4'-didehydro-nucleoside Prodrug Inhibitors of West Nile and Zika Viruses” (ACS Med Chem Lett, 2024):
The source made the active and inactive calls. No cut-off for these calls is given here.

What was measured:
[1] = system: West Nile virus; experiment: Antiviral activity against WNV infected in Huh-7 cells assessed as log reduction in viral titer at 0.1 to 1 mM preincubated for 24 hrs prior to compound washout followed by viral infection for 1 hr again media washout and compound addition for 3 days by neutral red staining based assay; format: functional; conditions: dose 0.1-1 mM; for Activity: time 96.0 hrs
[2] = system: Zika virus; experiment: Antiviral activity against ZIKV infected in Huh-7 cells assessed as log reduction in viral titer at 0.1 mM preincubated for 24 hrs prior to compound washout followed by viral infection for 1 hr again media washout and compound addition for 3 days by neutral red staining based assay; format: functional; conditions: for Activity: time 96.0 hrs
[3] = system: Zika virus; experiment: Antiviral activity against ZIKV infected in Huh-7 cells assessed as log reduction in viral titer at 1 mM preincubated for 24 hrs prior to compound washout followed by viral infection for 1 hr again media washout and compound addition for 3 days by neutral red staining based assay; format: functional
[4] = system: Huh-7; experiment: Cytotoxicity against human Huh-7 cells at 0.1 to 1 mM incubated for 6 days by neutral red staining based assay; format: toxicity, cell-based; conditions: huh-7, 144 h, 1000 µM, dose 0.1-1 mM, time 6 day
[5] = Cytotoxicity against african green monkey Vero cells assessed as decrease in cell viability at 1 mM incubated for 5 days by Alamar blue assay; format: toxicity, cell-based; conditions: chlorocebus sabaeus, 120 h, 1000 µM, time 5 day
[6] = system: Huh-7; experiment: Cytotoxicity against human Huh-7 cells assessed as decrease in cell viability at 1 mM incubated for 5 days by Alamar blue assay; format: toxicity, cell-based; conditions: huh-7, 120 h, 1000 µM, time 5 day
[7] = Cytotoxicity against african green monkey Vero cells assessed as decrease in cell viability at 0.1 to 1 mM incubated for 5 days by Alamar blue assay; format: toxicity, cell-based; conditions: chlorocebus sabaeus, 120 h, 1000 µM, dose 0.1-1 mM, time 5 day
[8] = system: Huh-7; experiment: Cytotoxicity against human Huh-7 cells assessed as decrease in cell viability at 0.1 to 1 mM incubated for 5 days by Alamar blue assay; format: toxicity, cell-based; conditions: huh-7, 120 h, 1000 µM, dose 0.1-1 mM, time 5 day
[9] = system: West Nile virus; experiment: Antiviral activity against WNV infected in Huh-7 cells assessed as log reduction in viral titer at 0.1 mM preincubated for 24 hrs prior to compound washout followed by viral infection for 1 hr again media washout and compound addition for 3 days by neutral red staining based assay; format: functional; conditions: time 96 hrs
[10] = system: West Nile virus; experiment: Antiviral activity against WNV infected in Huh-7 cells assessed as log reduction in viral titer at 1 mM preincubated for 24 hrs prior to compound washout followed by viral infection for 1 hr again media washout and compound addition for 3 days by neutral red staining based assay; format: functional, organism-based; conditions: time 96.0 hrs
[11] = system: Huh-7; experiment: Cytotoxicity against human Huh-7 cells at 1 mM; format: toxicity, cell-based; conditions: huh-7, 120 h, 1000 µM, time 5 day
[12] = system: Zika virus; experiment: Antiviral activity against ZIKV infected in Huh-7 cells assessed as reduction in viral titer at 0.1 to 1 mM preincubated for 24 hrs prior to compound washout followed by viral infection for 1 hr again media washout and compound addition for 3 days by neutral red staining based assay; format: functional; design: scale not given: the % may be the effect or the level left; conditions: dose 0.1-1 mM
[13] = Cytotoxicity against human Huh-7 cells assessed as cell viability at 1 mM incubated for 6 days by neutral red staining based assay; format: toxicity; conditions: time 6 day, read-out: Activity
[14] = Cytotoxicity against african green monkey Vero cells assessed as decrease in cell viability at 0.1 to 1 mM incubated for 2 days by Alamar blue assay; format: toxicity, cell-based; conditions: chlorocebus sabaeus, 48 h, 1000 µM, dose 0.1-1 mM, time 2 day

Row | SMILES | Activity [1] | Activity [4] | Activity [5] | Activity [6] [%] | Activity [7] | Activity [8] | also measured
1 | CC(C)OC(=O)[C@H](C)N[P@](=O)(OCC1=C[C@@H](O)[C@H](n2ccc(=O)[nH]c2=O)O1)Oc1ccccc1 | inactive | Non-Toxic | Non-Toxic | 70 | – | – | log(activity) ([2]; time 96 hrs): 2.5; Activity ([3]; time 96.0 hrs): inactive
2 | O=c1[nH]cnc2c1ncn2[C@@H]1OC(CO)=C[C@H]1O | inactive | Non-Toxic | – | – | Non-Toxic | Non-Toxic | –
3 | CC(C)OC(=O)[C@H](C)N[P@](=O)(OCC1=C[C@@H](O)[C@H](n2cnc3c(N)ncnc32)O1)Oc1ccccc1 | – | Toxic | 80% | 25 | – | – | log(activity) ([1]; time 96 hrs): 4.8; log(activity) [9]: 2.5; Activity [10]: Active; Activity [11]: Toxic; Activity ([12]; time 96 hrs): 100%; Activity [2]: Active; viability at 144 h, 1000 µM [13]: 70%
4 | Nc1ncnc2c1ncn2[C@@H]1OC(CO)=C[C@H]1O | – | Toxic | – | – | Non-Toxic | < 25% | log(activity) [9]: 1.5; Activity [10]: Active; Activity [11]: Toxic; viability at 144 h, 1000 µM [13]: 70%; Activity [14]: Toxic
5 | CC(C)OC(=O)[C@H](C)N[P@](=O)(OCC1=C[C@@H](O)[C@H](n2cnc3c(=O)[nH]cnc32)O1)Oc1ccccc1 | inactive | Non-Toxic | – | – | Non-Toxic | Non-Toxic | Activity ([12]; time 96.0 hrs): inactive
6 | Cc1cn([C@@H]2OC(CO[P@@](=O)(N[C@@H](C)C(=O)OC(C)C)Oc3ccccc3)=C[C@H]2O)c(=O)[nH]c1=O | inactive | Non-Toxic | Non-Toxic | 50 | – | – | Activity ([12]; time 96.0 hrs): inactive
7 | Nc1nc2c(ncn2[C@@H]2OC(CO)=C[C@H]2O)c(=O)[nH]1 | inactive | Non-Toxic | – | – | Non-Toxic | Non-Toxic | –
8 | O=c1ccn([C@@H]2OC(CO)=C[C@H]2O)c(=O)[nH]1 | inactive | Non-Toxic | – | – | Non-Toxic | Non-Toxic | –
9 | Cc1cn([C@@H]2OC(CO)=C[C@H]2O)c(=O)[nH]c1=O | inactive | Non-Toxic | – | – | Non-Toxic | Non-Toxic | –
10 | CC(C)OC(=O)[C@H](C)N[P@](=O)(OCC1=C[C@@H](O)[C@H](n2cnc3c(=O)[nH]c(N)nc32)O1)Oc1ccccc1 | inactive | Non-Toxic | – | – | Non-Toxic | Non-Toxic | Activity [2]: Active; log(activity) ([3]; time 96 hrs): 3.8
